Calls of active or inactive are those of the source.
How the values were obtained:
Vero [1] = assay: cells; type: functional; details: Chlorocebus sabaeus
Cytochrome P450 1A2 = biological target: T1, Cytochrome P450 1A2 (Homo sapiens, UniProt P05177);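 note: PubChem cytochrome P450 panel assay, CYP1A2 panel member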
T1 sequence (P05177 whole entry): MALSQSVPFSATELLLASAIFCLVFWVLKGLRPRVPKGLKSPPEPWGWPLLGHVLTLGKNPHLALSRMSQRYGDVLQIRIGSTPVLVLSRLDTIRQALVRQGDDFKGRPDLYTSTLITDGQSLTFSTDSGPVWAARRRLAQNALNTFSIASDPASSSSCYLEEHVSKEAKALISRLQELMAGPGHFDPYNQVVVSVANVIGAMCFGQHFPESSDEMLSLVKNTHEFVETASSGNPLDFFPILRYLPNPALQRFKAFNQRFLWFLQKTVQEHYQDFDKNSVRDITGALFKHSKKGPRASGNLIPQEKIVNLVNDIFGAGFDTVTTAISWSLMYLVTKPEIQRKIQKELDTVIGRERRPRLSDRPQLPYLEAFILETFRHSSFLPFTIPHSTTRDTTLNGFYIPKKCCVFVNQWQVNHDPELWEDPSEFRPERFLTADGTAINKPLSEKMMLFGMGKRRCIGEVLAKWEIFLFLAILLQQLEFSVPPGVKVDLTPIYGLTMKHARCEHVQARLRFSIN

Vero [2] = assay: cells; type: functional, cell-based; details: Chlorocebus sabaeus
[3] = biological target: T2, Corticotropin-releasing factor receptor 2/Corticotropin-releasing factor-binding protein (Homo sapiens, UniProt P24387+Q13324); assay: activators of CRF receptor 2 with binding protein – uHTS hits, confirmation (AID 602473); type: functional; details: read-out: EC50_Mean
T2 sequence (Q13324 whole entry): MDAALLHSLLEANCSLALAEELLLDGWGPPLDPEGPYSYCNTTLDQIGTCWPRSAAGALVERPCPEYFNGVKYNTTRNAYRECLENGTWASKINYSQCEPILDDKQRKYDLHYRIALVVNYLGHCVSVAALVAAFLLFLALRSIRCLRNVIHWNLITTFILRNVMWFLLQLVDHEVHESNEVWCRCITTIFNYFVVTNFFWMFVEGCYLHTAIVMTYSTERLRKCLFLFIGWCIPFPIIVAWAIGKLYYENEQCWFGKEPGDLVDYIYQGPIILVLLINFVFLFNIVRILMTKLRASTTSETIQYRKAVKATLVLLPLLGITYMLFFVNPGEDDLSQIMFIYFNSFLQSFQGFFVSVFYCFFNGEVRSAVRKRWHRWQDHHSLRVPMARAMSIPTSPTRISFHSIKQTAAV
T2 sequence (P24387 whole entry): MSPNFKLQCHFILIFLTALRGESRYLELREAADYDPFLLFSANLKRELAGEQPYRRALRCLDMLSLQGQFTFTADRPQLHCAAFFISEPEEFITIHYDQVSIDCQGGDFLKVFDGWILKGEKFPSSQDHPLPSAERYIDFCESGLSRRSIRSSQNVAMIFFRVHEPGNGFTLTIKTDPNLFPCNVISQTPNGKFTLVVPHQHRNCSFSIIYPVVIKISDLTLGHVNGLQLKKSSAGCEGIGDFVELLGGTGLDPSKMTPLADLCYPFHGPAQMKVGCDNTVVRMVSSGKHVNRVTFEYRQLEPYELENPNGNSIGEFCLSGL

cells [4] = assay: cells
[5] = HEp-2 cell cytotoxicity, dose response, cytotoxicity control for RSV inhibitor project, HTS (AID 2410); type: functional; details: human respiratory syncytial virus
[6] = cytotoxicity in HEK-293T cells, dose response, cytotoxicity control for BCR NF-kB inhibitor project, luminescence, B-cell screen hits (AID 489021); type: functional, cell-based;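 note: HEK-293T cells carrying an NF-kB luciferase reporter; cells exposed to compound for about 14 hours before viability readout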
Prothrombin = Prothrombin (Homo sapiens, UniProt P00734); assay: Thrombin 1536 HTS Dose Response Confirmation. [Related pubchem assays: 1046 (Thrombin 1536 HTS; hits were confirmed in this assay)]; type: functional
[7] = biological target: Ras and Rab interactor 1/Tyrosine-protein kinase ABL1 (Homo sapiens, UniProt P00519+Q13671); type: functional;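 note: biochemical TR-FRET dose-response test measuring inhibition of binding between Rin1 and Abl proteins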
Chain of Ras and Rab interactor 1/Tyrosine-protein kinase ABL1 (P00519 whole entry): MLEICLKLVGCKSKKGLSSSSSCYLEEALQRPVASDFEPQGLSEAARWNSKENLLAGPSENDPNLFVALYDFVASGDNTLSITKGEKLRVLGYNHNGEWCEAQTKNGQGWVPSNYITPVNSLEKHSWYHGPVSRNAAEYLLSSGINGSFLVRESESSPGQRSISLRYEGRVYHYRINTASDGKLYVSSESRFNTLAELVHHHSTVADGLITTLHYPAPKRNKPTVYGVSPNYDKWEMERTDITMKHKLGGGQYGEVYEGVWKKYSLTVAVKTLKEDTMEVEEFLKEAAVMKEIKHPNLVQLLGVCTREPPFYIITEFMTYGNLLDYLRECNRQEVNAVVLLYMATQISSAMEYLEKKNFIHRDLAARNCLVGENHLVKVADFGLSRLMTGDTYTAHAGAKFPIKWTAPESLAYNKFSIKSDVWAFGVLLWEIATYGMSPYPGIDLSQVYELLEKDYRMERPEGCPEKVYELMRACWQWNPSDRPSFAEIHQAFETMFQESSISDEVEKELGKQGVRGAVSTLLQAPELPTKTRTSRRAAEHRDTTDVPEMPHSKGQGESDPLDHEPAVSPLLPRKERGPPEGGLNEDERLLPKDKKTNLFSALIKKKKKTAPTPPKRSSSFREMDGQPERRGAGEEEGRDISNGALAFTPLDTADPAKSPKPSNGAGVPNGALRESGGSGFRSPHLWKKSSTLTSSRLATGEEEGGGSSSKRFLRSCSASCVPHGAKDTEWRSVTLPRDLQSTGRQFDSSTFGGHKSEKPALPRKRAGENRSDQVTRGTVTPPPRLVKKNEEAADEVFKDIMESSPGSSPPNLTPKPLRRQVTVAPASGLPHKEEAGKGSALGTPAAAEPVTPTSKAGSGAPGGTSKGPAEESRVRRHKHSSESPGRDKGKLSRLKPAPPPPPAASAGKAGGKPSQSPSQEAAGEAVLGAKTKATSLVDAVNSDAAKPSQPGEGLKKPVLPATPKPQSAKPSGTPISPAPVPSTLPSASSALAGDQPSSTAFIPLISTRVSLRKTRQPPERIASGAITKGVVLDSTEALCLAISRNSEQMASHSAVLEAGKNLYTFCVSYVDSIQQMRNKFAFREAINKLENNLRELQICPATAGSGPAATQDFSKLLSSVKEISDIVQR
Chain of Ras and Rab interactor 1/Tyrosine-protein kinase ABL1 (Q13671 whole entry): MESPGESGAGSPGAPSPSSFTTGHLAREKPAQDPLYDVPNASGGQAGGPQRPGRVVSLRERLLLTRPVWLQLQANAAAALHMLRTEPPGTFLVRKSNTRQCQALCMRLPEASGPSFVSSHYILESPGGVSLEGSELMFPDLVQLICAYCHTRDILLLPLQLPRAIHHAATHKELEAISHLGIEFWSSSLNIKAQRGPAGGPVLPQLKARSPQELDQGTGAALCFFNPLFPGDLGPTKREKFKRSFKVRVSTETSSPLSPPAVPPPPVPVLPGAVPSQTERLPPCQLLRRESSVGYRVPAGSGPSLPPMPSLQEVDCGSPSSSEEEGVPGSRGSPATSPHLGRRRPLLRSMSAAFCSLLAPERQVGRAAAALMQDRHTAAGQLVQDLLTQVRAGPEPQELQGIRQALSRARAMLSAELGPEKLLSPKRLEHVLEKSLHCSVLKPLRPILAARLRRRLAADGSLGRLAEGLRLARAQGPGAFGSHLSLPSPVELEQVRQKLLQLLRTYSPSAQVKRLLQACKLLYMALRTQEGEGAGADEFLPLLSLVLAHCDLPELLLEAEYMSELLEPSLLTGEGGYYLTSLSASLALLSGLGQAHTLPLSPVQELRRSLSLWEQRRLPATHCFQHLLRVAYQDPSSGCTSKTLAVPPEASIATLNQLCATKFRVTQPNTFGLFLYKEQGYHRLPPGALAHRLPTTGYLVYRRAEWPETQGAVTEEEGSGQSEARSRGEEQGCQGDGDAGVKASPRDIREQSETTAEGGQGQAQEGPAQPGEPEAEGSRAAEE

Beta-galactosidase = Beta-galactosidase (Escherichia coli, UniProt Q8VNN2); assay: beta-galactosidase enzyme inhibitors and activators, dose response, artefact control for CCR6 antagonist project, biochemical, E. coli enzyme, set 3 (AID 504712); type: functional
Chain of Beta-galactosidase (Q8VNN2 whole entry): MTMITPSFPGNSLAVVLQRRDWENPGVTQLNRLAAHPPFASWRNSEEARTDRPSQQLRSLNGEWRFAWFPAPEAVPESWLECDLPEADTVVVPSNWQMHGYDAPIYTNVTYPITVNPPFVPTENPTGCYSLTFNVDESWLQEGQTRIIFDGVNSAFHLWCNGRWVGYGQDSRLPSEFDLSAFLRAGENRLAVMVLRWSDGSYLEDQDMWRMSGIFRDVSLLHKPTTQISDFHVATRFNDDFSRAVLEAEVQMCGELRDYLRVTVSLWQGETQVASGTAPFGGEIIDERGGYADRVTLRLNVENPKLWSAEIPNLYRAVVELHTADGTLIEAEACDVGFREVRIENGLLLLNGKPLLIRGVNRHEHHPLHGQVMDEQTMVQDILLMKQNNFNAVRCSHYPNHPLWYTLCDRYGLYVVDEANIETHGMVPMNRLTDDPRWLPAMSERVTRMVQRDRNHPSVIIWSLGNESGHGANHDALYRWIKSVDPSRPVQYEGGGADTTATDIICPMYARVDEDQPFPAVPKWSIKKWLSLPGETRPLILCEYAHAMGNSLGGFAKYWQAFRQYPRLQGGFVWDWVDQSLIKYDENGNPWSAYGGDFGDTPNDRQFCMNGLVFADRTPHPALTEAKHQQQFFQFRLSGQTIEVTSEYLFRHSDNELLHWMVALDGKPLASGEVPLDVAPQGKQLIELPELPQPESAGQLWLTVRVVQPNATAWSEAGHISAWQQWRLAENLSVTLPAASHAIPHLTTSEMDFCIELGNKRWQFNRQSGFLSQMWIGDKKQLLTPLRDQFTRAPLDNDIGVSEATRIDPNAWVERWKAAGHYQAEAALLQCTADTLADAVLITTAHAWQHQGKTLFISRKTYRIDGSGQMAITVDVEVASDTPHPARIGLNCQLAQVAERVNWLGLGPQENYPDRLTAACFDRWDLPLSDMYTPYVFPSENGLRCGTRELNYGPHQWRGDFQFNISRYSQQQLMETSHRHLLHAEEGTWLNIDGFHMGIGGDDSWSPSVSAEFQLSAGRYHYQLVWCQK

Streptococcus = assay: Group A Streptococcus viability loss, dose response, counter-screen for streptokinase expression inhibitor project, luminescence, BacTiterGlo (AID 1915); type: functional, organism-based;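 note: potency for reduction of bacterial viability or growth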
[8] = biological target: T3, Short transient receptor potential channel 4 (Mus musculus, UniProt Q9QUQ5); assay: mouse TRPC4 channel activators, dose response, cell-based, HEK293 TRPC4/mu-opioid, Fluo-4 calcium (AID 434937); type: functional
T3 sequence (Q9QUQ5 whole entry): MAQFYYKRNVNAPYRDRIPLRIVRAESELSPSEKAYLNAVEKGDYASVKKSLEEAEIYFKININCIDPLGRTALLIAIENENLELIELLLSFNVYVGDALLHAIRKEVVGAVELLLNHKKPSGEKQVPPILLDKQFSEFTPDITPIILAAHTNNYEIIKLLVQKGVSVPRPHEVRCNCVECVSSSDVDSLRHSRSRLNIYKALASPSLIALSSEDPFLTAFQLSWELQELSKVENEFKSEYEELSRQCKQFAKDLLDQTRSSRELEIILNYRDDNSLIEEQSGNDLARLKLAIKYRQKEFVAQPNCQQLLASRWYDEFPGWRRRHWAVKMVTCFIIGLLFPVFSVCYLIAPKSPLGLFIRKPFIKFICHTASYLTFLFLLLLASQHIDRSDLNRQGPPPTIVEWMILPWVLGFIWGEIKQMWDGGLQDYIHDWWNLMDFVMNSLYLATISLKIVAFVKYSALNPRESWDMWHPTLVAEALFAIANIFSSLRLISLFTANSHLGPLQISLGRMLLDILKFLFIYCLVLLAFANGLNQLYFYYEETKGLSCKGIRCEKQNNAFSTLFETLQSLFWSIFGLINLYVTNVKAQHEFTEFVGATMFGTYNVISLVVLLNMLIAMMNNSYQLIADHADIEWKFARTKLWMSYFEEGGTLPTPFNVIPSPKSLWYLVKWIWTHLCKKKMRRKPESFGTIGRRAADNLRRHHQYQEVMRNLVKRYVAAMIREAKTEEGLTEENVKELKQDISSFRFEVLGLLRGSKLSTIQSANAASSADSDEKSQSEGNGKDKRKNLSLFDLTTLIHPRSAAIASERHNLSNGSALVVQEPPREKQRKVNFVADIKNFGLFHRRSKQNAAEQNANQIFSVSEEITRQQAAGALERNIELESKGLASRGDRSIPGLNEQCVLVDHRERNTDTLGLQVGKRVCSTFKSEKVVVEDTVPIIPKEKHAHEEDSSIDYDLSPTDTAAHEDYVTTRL

[9] = tested on: Streptococcus sp. 'group A'; assay: growth inhibition of control SK(-) GAS strain, dose response, counter-screen for streptokinase expression inhibitor project, luminescence, kanamycin, BacTiterGlo, confirmation (AID 1900); type: functional, organism-based
[10] = ADAM10 protease inhibitors, dose response, selectivity assay for ADAM17 exosite inhibitor project, biochemical, FRET peptide substrate, recombinant human ADAM10 (AID 743259);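 note: ADAM10 enzyme cleaving a FRET peptide substrate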
[11] = biological target: Disintegrin and metalloproteinase domain-containing protein 17 (Homo sapiens, UniProt P78536); assay: exosite inhibitors of ADAM17, dose response, biochemical (AID 743260)
Chain of Disintegrin and metalloproteinase domain-containing protein 17 (P78536 whole entry, the tested form may be a part): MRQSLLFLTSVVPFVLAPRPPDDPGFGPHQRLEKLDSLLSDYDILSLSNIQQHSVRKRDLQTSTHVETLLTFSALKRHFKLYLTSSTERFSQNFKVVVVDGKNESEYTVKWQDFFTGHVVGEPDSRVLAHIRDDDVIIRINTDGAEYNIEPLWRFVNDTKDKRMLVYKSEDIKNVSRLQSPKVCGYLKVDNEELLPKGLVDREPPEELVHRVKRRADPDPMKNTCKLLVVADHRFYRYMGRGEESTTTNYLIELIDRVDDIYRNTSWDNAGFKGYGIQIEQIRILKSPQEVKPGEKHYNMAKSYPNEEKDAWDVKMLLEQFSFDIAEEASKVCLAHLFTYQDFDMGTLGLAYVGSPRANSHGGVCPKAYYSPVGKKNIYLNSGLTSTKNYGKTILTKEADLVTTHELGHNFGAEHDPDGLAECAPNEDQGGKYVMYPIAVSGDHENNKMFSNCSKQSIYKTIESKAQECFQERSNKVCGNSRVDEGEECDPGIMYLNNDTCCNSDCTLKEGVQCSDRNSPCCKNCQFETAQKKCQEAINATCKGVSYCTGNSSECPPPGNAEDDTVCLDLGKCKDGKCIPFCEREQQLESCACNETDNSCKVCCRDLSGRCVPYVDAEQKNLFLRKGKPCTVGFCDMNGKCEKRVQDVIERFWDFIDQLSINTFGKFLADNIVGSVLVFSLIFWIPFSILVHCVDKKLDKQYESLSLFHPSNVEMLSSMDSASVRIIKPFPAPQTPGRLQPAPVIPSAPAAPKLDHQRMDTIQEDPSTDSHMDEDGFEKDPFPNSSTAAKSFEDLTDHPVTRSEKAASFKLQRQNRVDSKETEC

CHO = assay: cytotoxicity in TLR9-MyD88 CHO cells, dose response, cytotoxicity control for TLR9-MyD88 binding inhibitor project, cell-based, luminescence (AID 588339); type: functional, hamster; details: Cricetulus griseus;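 note: CHO cells stably coexpressing TLR9 and MyD88 fusions from primary screen; compound exposure lasted 48 hours before viability readout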
Beta Lactamase = Beta Lactamase (Pseudomonas aeruginosa, UniProt Q932Y6); assay: beta-lactamase reporter inhibitor potency, dose response, artefact control for TLR9-MyD88 binding inhibitor project, BLA reporter cells, FRET fluorescence (AID 588341); type: cell-based;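 note: cell based assay in CHO-K1 cells stably expressing beta-lactamase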
Chain of Beta Lactamase (Q932Y6 whole entry): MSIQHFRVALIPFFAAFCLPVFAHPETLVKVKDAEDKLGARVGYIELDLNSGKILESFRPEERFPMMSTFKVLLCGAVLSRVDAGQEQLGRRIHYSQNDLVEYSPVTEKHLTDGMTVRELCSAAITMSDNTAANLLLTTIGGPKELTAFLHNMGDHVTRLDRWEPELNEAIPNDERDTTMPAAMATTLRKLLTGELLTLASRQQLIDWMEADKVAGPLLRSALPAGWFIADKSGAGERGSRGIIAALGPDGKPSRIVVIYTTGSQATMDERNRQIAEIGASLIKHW

Galanin receptor type 3 = biological target: T4, Galanin receptor type 3 (Homo sapiens, UniProt O60755); assay: Fluorescence-based cell-based primary high throughput dose response assay to identify antagonists of the Galanin Receptor 3 (GalR3).; type: functional
T4 sequence (O60755 whole entry): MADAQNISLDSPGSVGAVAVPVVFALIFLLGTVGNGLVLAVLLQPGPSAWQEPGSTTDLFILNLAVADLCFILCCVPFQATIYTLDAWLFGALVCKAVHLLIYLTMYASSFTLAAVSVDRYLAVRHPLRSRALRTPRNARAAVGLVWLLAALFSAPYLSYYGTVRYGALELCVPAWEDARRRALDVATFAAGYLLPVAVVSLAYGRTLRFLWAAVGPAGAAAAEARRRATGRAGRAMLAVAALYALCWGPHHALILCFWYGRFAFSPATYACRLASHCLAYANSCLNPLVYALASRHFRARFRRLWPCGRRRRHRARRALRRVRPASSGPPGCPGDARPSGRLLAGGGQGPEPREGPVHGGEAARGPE

[12] = cytotoxicity toward NIH3T3 fibroblasts, dose response, counter-screen, cell-based, ATP luminescence, mouse fibroblasts (AID 2010); type: functional;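 note: cells exposed to compound for about 90 hours before reading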
cells [13] = type: functional, cell-based; details: HEK-CNG
[14] = inhibitors of intracellular T. cruzi replication, confirmation, NIH3T3 host cells, beta-gal luminescence (AID 2044); type: functional, cell-based;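 note: intracellular parasites grown in NIH/3T3 mouse fibroblasts as host cells; luminescent beta-galactosidase reporter signal from transgenic T. cruzi replicating inside host cells; inhibitors lower the luminescence signal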

Which CC50 (Vero [1]) does the source give for `c1nnc(NCNc2nncs2)s1` here?
Its CC50 is > 25 µM (active).

And the AC50 (Cytochrome P450 1A2)?
The AC50 was 2 µM (inconclusive).

What about the IC50 (Vero [2]) of the same compound?
Its IC50 is > 25 µM (active).

And the EC50 [3]?
The EC50 was > 53 µM (inactive).

What does the source list for `Cc1cc(NC(=O)COC(=O)c2c(Cl)cccc2Cl)no1`?
IC50 (cells [4]): 21.8 µM (active); IC50 (Vero [2]): > 25 µM (active); CC50 [5]: > 50 µM (active)

With `Cc1ccc2nc(NC(=O)CSCC(=O)OCC(=O)c3ccc(Br)cc3)sc2c1` as the compound, how does the IC50 [6] read?
The IC50 was > 80 µM (inactive).

And the IC50 (Prothrombin)?
Its IC50 is 39.3 nM (active).

Which IC50 [7] does the source give for `COc1ccc(CC(=O)Oc2ccc(C)cc2Br)cc1OC` here?
Its IC50 is 6.87 µM (active).

With `Cc1ccc(C(=O)NNC(=S)NC(=O)c2ccccc2)cc1` as the compound, how does the IC50 (Beta-galactosidase) read?
The IC50 was > 66.6 µM (inactive).

What about the EC50 (Streptococcus) of the same compound?
Its EC50 is 4.44 µM (active).

And the CC50 (Vero [1])?
The CC50 was 24.8 µM (active).

What about the EC50 [8] of the same compound?
The EC50 was 2.66 µM (active).

What about the IC50 (Vero [2]) of the same compound?
The IC50 was 12 µM (active).

And the EC50 [9]?
Its EC50 is 1.47 µM (active).

For `CC12CCC(=O)N1C(C(=O)N1CCN(S(=O)(=O)c3ccc(Br)cc3Cl)CC1)CS2` (stereo not drawn), which IC50 [7] is on record?
The IC50 was 17 µM (inactive).

Which results are given for `O=C(OCc1cnc(Cl)s1)c1cccc(Cl)c1Cl`?
IC50 [10]: > 69.6 µM (inactive); IC50 [11]: > 69.6 µM (inactive)

What does the source list for `Cn1c(-c2c(N)n(-c3ccccc3)c3nc4ccccc4nc23)nc2ccccc21`?
IC50 (CHO): > 49.7 µM (inactive); IC50 (Beta Lactamase): 3.85 µM (active)

For `COc1cc(/C=C(\C#N)c2ccccn2)ccc1OCc1ccccc1`, which IC50 [10] is on record?
The IC50 was > 69.5 µM (inactive).

What about the IC50 [11] of the same compound?
The IC50 was > 69.5 µM (inactive).

Which IC50 (Galanin receptor type 3) does the source give for `CC1(C)CC2CC(C)(CN2S(=O)(=O)c2ccc(C(=O)Nc3ccc(S(=O)(=O)N4CCOCC4)cc3)cc2)C1` (stereo not drawn) here?
The IC50 was 960 nM (active).

What about the IC50 [6] of the same compound?
The IC50 was > 80 µM (inactive).

What about the EC50 [12] of the same compound?
The EC50 was > 60 µM (not active).

And the EC50 (cells [13])?
The EC50 was > 29.9 µM (inactive).

What about the EC50 [14] of the same compound?
The EC50 was 1.83 µM (active).

— ChEMBL document CHEMBL1201862, “PubChem BioAssay data set” (2004)
